The test system of this assay is WT Mtb Erdman strain. Briefly: Microplate Alamar Blue Assay (MABA), Mtb growth inhibition. Format: cell-based, Mycobacterium tuberculosis. Particulars: Mycobacterium tuberculosis, ERDMAN, 168 h, Middlebrook 7H9 media, 7 days at 37° C. in 5% CO2.

Experimental findings from patent US20240279236A1, “COMPOUNDS AND METHODS OF TREATING TUBERCULOSIS” (Fimbrion Therapeutics, Inc., priority 2021, published 2024) are described below.

As a reminder, the IC50 is the point on the concentration scale where inhibition reaches its midpoint. A low value points to inhibition by little substance. Turning to `CCc1nc(N[C@@H]2C[C@H]2c2ccccc2)c2cc(C)sc2n1` (racemic) [Example 1, 2-ethyl-6-methyl-N-((rac-1S,2R)-2-phenylcyclopropyl) thieno[2,3-d]pyrimidin-4-amine], the IC50 was determined as 240 nM.

For the compound `CCc1nc(NC[C@@H]2C[C@H]2c2ccccc2)c2cc(C)sc2n1` (racemic) [Example 84, 2-ethyl-6-methyl-N-(((1S,2S)-2-phenylcyclopropyl)methyl)thieno[2,3-d]pyrimidin-4-amine], the half-inhibitory concentration (IC50) was determined as 7700 nM. To `CCc1nc(N[C@@H]2C[C@H]2c2ccccc2)c2ccsc2n1` (racemic) [Example 175, 2-ethyl-N-((rac-1R,2S)-2-phenylcyclopropyl) thieno[2,3-d]pyrimidin-4-amine] belongs less than 240 nM; to `CCc1nc(N[C@H]2C[C@@H]2c2ccccc2)c2cc(C)sc2n1` [Example 2, 2-ethyl-6-methyl-N-((1S,2R)-2-phenylcyclopropyl) thieno[2,3-d]pyrimidin-4-amine], 3100 nM; to `CCc1nc(NCCCc2ccc(C(F)(F)F)cc2)c2cc(C)sc2n1` [Example 3, 2-ethyl-6-methyl-N-(3-(4-(trifluoromethyl)phenyl)propyl)thieno [2,3-d]pyrimidin-4-amine], 280 nM.

Consider `CCc1nc(N[C@@H]2C[C@H]2c2ccc(F)c(F)c2)c2cc(C)sc2n1` [Example 4, N-((1R,2S)-2-(3,4-difluorophenyl)cyclopropyl)-2-ethyl-6-methylthieno[2,3-d]pyrimidin-4-amine], for which 300 nM corresponded to half-maximal inhibition (IC50). This IC50 and that of the compound before are within 1.5-fold of each other. To `CCc1nc(NC2CC(c3ccccc3)C2)c2cc(C)sc2n1` (stereo not drawn) [Example 5, 2-ethyl-6-methyl-N-(3-phenylcyclobutyl) thieno[2,3-d]pyrimidin-4-amine] belongs 2100 nM. The value for `CCc1nc(N[C@@H]2C[C@H]2c2ccccc2)c2cc(C)sc2n1` [Example 6, 2-ethyl-6-methyl-N-((1R,2S)-2-phenylcyclopropyl) thieno[2,3-d]pyrimidin-4-amine] was 440 nM; that for `CCc1nc(NCCc2ccc(Cl)cc2)c2cc(C)sc2n1` [Example 7, N-(4-chlorophenethyl)-2-ethyl-6-methylthieno[2,3-d]pyrimidin-4-amine] was 1100 nM; that for `CCc1nc(NCCc2cccc(Cl)c2)c2cc(C)sc2n1` [Example 8, N-(3-chlorophenethyl)-2-ethyl-6-methylthieno[2,3-d]pyrimidin-4-amine] was 690 nM. The value for `CCc1nc(NCCc2ccccc2Cl)c2cc(C)sc2n1` [Example 9, N-(2-chlorophenethyl)-2-ethyl-6-methylthieno[2,3-d]pyrimidin-4-amine] was 2000 nM; that for `CCc1nc(NCCc2ccc3ccccc3c2)c2cc(C)sc2n1` [Example 10, 2-ethyl-6-methyl-N-(2-(naphthalen-2-yl)ethyl)thieno[2,3-d]pyrimidin-4-amine] was 450 nM; that for `CCc1nc(NCCOc2ccccc2)c2cc(C)sc2n1` [Example 11, 2-ethyl-6-methyl-N-(2-phenoxyethyl)thieno [2,3-d]pyrimidin-4-amine] was 2800 nM. Take `CCc1nc(NCCc2ccncc2)c2cc(C)sc2n1` [Example 12, 2-ethyl-6-methyl-N-(2-(pyridin-4-yl)ethyl)thieno[2,3-d]pyrimidin-4-amine]: the IC50 is greater than 10000 nM. Turning to `CCc1nc(NCCc2cccnc2)c2cc(C)sc2n1` [Example 13, 2-ethyl-6-methyl-N-(2-(pyridin-3-yl)ethyl)thieno[2,3-d]pyrimidin-4-amine], the 50% inhibitory concentration (IC50) is greater than 10000 nM.

`CCc1nc(NCCc2ccccn2)c2cc(C)sc2n1` [Example 14, 2-ethyl-6-methyl-N-(2-(pyridin-2-yl)ethyl)thieno[2,3-d]pyrimidin-4-amine] returned a half-maximal inhibitory concentration (IC50) greater than 10000 nM. To `CCc1nc(NCCc2ccc(OC)cc2)c2cc(C)sc2n1` [Example 15, 2-ethyl-N-(4-methoxyphenethyl)-6-methylthieno[2,3-d]pyrimidin-4-amine] belongs 2100 nM; to `CCc1nc(NCCc2ccc([N+](=O)[O-])cc2)c2cc(C)sc2n1` [Example 16, 2-ethyl-6-methyl-N-(4-nitrophenethyl)thieno [2,3-d]pyrimidin-4-amine], 9000 nM; to `CCc1nc(N(C)CCCc2ccccc2)c2cc(C)sc2n1` [Example 17, 2-ethyl-N,6-dimethyl-N-(3-phenylpropyl)thieno [2,3-d]pyrimidin-4-amine], 7600 nM. The value for `CCc1nc(NCCCc2ccc(OC)cc2)c2cc(C)sc2n1` [Example 18, 2-ethyl-N-(3-(4-methoxyphenyl)propyl)-6-methylthieno[2,3-d]pyrimidin-4-amine] was 60 nM; that for `CCc1nc(NCCc2ccc(C(F)(F)F)cc2)c2cc(C)sc2n1` [Example 19, 2-ethyl-6-methyl-N-(4-(trifluoromethyl)phenethyl)thieno[2,3-d]pyrimidin-4-amine] was 2900 nM; that for `CCc1nc(NCCc2cccc(C(F)(F)F)c2)c2cc(C)sc2n1` [Example 20, 2-ethyl-6-methyl-N-(3-(trifluoromethyl)phenethyl)thieno[2,3-d]pyrimidin-4-amine] was 4900 nM. The value for `CCc1nc(NCCc2ccccc2C(F)(F)F)c2cc(C)sc2n1` [Example 21, 2-ethyl-6-methyl-N-(2-(trifluoromethyl)phenethyl)thieno[2,3-d]pyrimidin-4-amine] was greater than 10000 nM; that for `CCc1nc(NCCCc2ccc(OC)c(OC)c2)c2cc(C)sc2n1` [Example 22, N-(3-(3,4-dimethoxyphenyl)propyl)-2-ethyl-6-methylthieno[2,3-d]pyrimidin-4-amine] was 770 nM; that for `CCc1nc(NC(C)CCc2ccccc2)c2cc(C)sc2n1` (stereo not drawn) [Example 23, 2-ethyl-6-methyl-N-(4-phenylbutan-2-yl)thieno[2,3-d]pyrimidin-4-amine] was 8300 nM. For the compound `CCc1nc(NCCCc2ccco2)c2cc(C)sc2n1` [Example 24, 2-ethyl-N-(3-(furan-2-yl)propyl)-6-methylthieno[2,3-d]pyrimidin-4-amine], half-maximal inhibition (IC50) was put at 1000 nM. To `CCc1nc(NCCCCc2ccccc2)c2cc(C)sc2n1` [Example 25, 2-ethyl-6-methyl-N-(4-phenylbutyl)thieno [2,3-d]pyrimidin-4-amine] belongs 120 nM. The value for `CCc1nc(NCCc2ccc(-c3ccccc3)cc2)c2cc(C)sc2n1` [Example 26, N-(2-([1,1′-biphenyl]-4-yl)ethyl)-2-ethyl-6-methylthieno[2,3-d]pyrimidin-4-amine] was 1200 nM; that for `CCc1nc(NCCCn2cccc2)c2cc(C)sc2n1` [Example 27, N-(3-(1H-pyrrol-1-yl)propyl)-2-ethyl-6-methylthieno[2,3-d]pyrimidin-4-amine] was 210 nM; that for `Cc1cc2c(N[C@@H]3C[C@H]3c3ccc(F)c(F)c3)nc(C(F)(F)F)nc2s1` [Example 28, N-((1R,2S)-2-(3,4-difluorophenyl)cyclopropyl)-6-methyl-2-(trifluoromethyl) thieno [2,3-d]pyrimidin-4-amine] was 2100 nM.

Regarding `COc1ccc(CCCNc2nc(-c3ccccn3)nc3sccc23)cc1` [Example 29, N-(3-(4-methoxyphenyl)propyl)-2-(pyridin-2-yl)thieno[2,3-d]pyrimidin-4-amine], the half-maximal inhibitory concentration (IC50) came to 2300 nM. This IC50 and that of the compound before are within 1.5-fold of each other. To `FC(F)(F)c1ccc(CCCNc2nc(-c3ccccn3)nc3sccc23)cc1` [Example 30, 2-(pyridin-2-yl)-N-(3-(4-(trifluoromethyl)phenyl)propyl)thieno[2,3-d]pyrimidin-4-amine] belongs 2200 nM; to `Fc1ccc([C@@H]2C[C@H]2Nc2nc(-c3ccccn3)nc3sccc23)cc1F` [Example 31, N-((1R,2S)-2-(3,4-difluorophenyl)cyclopropyl)-2-(pyridin-2-yl)thieno[2,3-d]pyrimidin-4-amine], 7100 nM; to `Fc1ccc([C@@H]2C[C@H]2Nc2nc(-c3ccccn3)nc3sc(Cl)cc23)cc1F` [Example 32, 6-chloro-N-((1R,2S)-2-(3,4-difluorophenyl)cyclopropyl)-2-(pyridin-2-yl)thieno[2,3-d]pyrimidin-4-amine], 3500 nM.

With `Cc1cc2c(N[C@@H]3C[C@H]3c3ccc(F)c(F)c3)nc(-c3ccccn3)nc2s1` [Example 33, N-((1R,2S)-2-(3,4-difluorophenyl)cyclopropyl)-6-methyl-2-(pyridin-2-yl)thieno[2,3-d]pyrimidin-4-amine], the IC50 was found to be 4300 nM. On to `CCc1nc(NCCCc2ccc(OC(F)(F)F)cc2)c2cc(C)sc2n1` [Example 34, 2-ethyl-6-methyl-N-(3-(4-(trifluoromethoxy)phenyl)propyl)thieno[2,3-d]pyrimidin-4-amine], for which half-maximal inhibition (IC50) required 270 nM. The value for `FC(F)(F)Oc1ccc(CCCNc2nc(-c3ccccn3)nc3sccc23)cc1` [Example 35, 2-(pyridin-2-yl)-N-(3-(4-(trifluoromethoxy)phenyl)propyl)thieno[2,3-d]pyrimidin-4-amine] was 2200 nM; that for `Cc1cc2c(NCCCc3ccc(OC(F)(F)F)cc3)nc(C(F)(F)F)nc2s1` [Example 36, 6-methyl-N-(3-(4-(trifluoromethoxy)phenyl)propyl)-2-(trifluoromethyl)thieno [2,3-d]pyrimidin-4-amine] was 2100 nM. The value for `CCc1nc(NCCc2cccc(OC)c2)c2cc(C)sc2n1` [Example 37, 2-ethyl-N-(3-methoxyphenethyl)-6-methylthieno[2,3-d]pyrimidin-4-amine] was greater than 7900 nM; that for `Cc1cc2c(N[C@@H]3C[C@H]3c3ccc(F)c(F)c3)nc(-c3ccncn3)nc2s1` [Example 38, N-((1R,2S)-2-(3,4-difluorophenyl)cyclopropyl)-6-methyl-2-(pyrimidin-4-yl)thieno[2,3-d]pyrimidin-4-amine] was 2000 nM; that for `CCc1nc(NCCc2cccc([N+](=O)[O-])c2)c2cc(C)sc2n1` [Example 39, 2-ethyl-6-methyl-N-(3-nitrophenethyl)thieno [2,3-d]pyrimidin-4-amine] was greater than 8800 nM.

`CCc1nc(NCCOc2ccc(OC)cc2)c2cc(C)sc2n1` [Example 40, 2-ethyl-N-(2-(4-methoxyphenoxy)ethyl)-6-methylthieno[2,3-d]pyrimidin-4-amine] returned a half-inhibitory concentration (IC50) of 3600 nM.
